Results from ChEMBL document CHEMBL1154822, “Synthesis and antiproliferative activity of 7-azaindirubin-3'-oxime, a 7-aza isostere of the natural indirubin pharmacophore” (J Nat Prod, 2009).

What was measured:
Assay type in all cases: functional
A549 [1] = assay: Cytotoxicity against human A549 cells after 1 to 11 days by MTT assay
SN12C = assay: Cytotoxicity against human SN12C cells after 1 to 11 days by MTT assay
HL-60(TB) = assay: Cytotoxicity against human HL-60(TB) cells assessed as cell growth at 1 uM after 1 to 11 days by MTT assay; settings: read-out: Activity
MDA-MB-231 = assay: Cytotoxicity against human MDA-MB-231 cells assessed as cell growth at 1 mM after 1 to 11 days by MTT assay; settings: read-out: Activity
COLO 205 = assay: Cytotoxicity against human COLO205 cells assessed as cell growth at 1 uM after 1 to 11 days by MTT assay; settings: read-out: Activity
SK-MEL-5 = assay: Cytotoxicity against human SK-MEL-5 cells after 1 to 11 days by MTT assay
LOX IMVI [2] = assay: Cytotoxicity against human LOXIMVI cells assessed as cell growth at 0.1 uM after 1 to 11 days by MTT assay; settings: read-out: Activity
NCI-H322M [3] = assay: Cytotoxicity against human NCI-H322M cells assessed as cell growth at 100 uM after 1 to 11 days by MTT assay; settings: read-out: Activity
BT-549 = assay: Cytotoxicity against human BT549 cells assessed as cell growth at 0.1 uM after 1 to 11 days by MTT assay; settings: read-out: Activity
A498 = assay: Cytotoxicity against human A498 cells assessed as cell growth at 0.1 uM after 1 to 11 days by MTT assay; settings: read-out: Activity
SK-MEL-28 [4] = assay: Cytotoxicity against human SK-MEL-28 cells assessed as cell growth at 1 mM after 1 to 11 days by MTT assay; settings: read-out: Activity
NCI-H522 [5] = assay: Cytotoxicity against human NCI-H522 cells assessed as cell growth at 10 uM after 1 to 11 days by MTT assay; settings: read-out: Activity
MDA-MB-468 = assay: Cytotoxicity against human MDA-MB-468 cells assessed as cell growth at 1 uM after 1 to 11 days by MTT assay; settings: read-out: Activity
HCT-116 [6] = assay: Cytotoxicity against human HCT116 cells after 1 to 11 days by MTT assay
HCT-116 [7] = assay: Cytotoxicity against human HCT116 cells assessed as cell growth at 1 mM after 1 to 11 days by MTT assay; settings: read-out: Activity
PC-3 = assay: Cytotoxicity against human PC3 cells assessed as cell growth at 0.1 uM after 1 to 11 days by MTT assay; settings: read-out: Activity
MOLT-4 [8] = assay: Cytotoxicity against human MOLT4 cells assessed as cell growth at 10 uM after 1 to 11 days by MTT assay; settings: read-out: Activity
SK-MEL-28 [9] = assay: Cytotoxicity against human SK-MEL-28 cells assessed as cell growth at 10 uM after 1 to 11 days by MTT assay; settings: read-out: Activity
A549 [10] = assay: Cytotoxicity against human A549 cells assessed as cell growth at 10 uM after 1 to 11 days by MTT assay; settings: read-out: Activity
SF-268 [11] = assay: Cytotoxicity against human SF268 cells assessed as cell growth at 1 mM after 1 to 11 days by MTT assay; settings: read-out: Activity
SK-OV-3 = assay: Cytotoxicity against human SKOV3 cells assessed as cell growth at 100 uM after 1 to 11 days by MTT assay; settings: read-out: Activity
OVCAR-4 = assay: Cytotoxicity against human OVCAR4 cells assessed as cell growth at 0.1 uM after 1 to 11 days by MTT assay; settings: read-out: Activity
NCI-H522 [12] = assay: Cytotoxicity against human NCI-H522 cells assessed as cell growth at 0.1 uM after 1 to 11 days by MTT assay; settings: read-out: Activity
ACHN = assay: Cytotoxicity against human ACHN cells assessed as cell growth at 1 mM after 1 to 11 days by MTT assay; settings: read-out: Activity
MOLT-4 [13] = assay: Cytotoxicity against human MOLT4 cells assessed as cell growth at 1 uM after 1 to 11 days by MTT assay; settings: read-out: Activity
SF-539 [14] = assay: Cytotoxicity against human SF539 cells assessed as cell growth at 0.1 uM after 1 to 11 days by MTT assay; settings: read-out: Activity
SNB-19 [15] = assay: Cytotoxicity against human SNB19 cells assessed as cell growth at 1 uM after 1 to 11 days by MTT assay; settings: read-out: Activity
OVCAR-8 = assay: Cytotoxicity against human OVCAR8 cells assessed as cell growth at 1 uM after 1 to 11 days by MTT assay; settings: read-out: Activity
MOLT-4 [16] = assay: Cytotoxicity against human MOLT4 cells assessed as cell growth at 0.1 uM after 1 to 11 days by MTT assay; settings: read-out: Activity
MCF7 = assay: Cytotoxicity against human MCF7 cells assessed as cell growth at 10 uM after 1 to 11 days by MTT assay; settings: read-out: Activity
NCI-H322M [17] = assay: Cytotoxicity against human NCI-H322M cells assessed as cell growth at 1 uM after 1 to 11 days by MTT assay; settings: read-out: Activity
IGROV-1 = assay: Cytotoxicity against human IGROV1 cells assessed as cell growth at 10 uM after 1 to 11 days by MTT assay; settings: read-out: Activity
SW-620 = assay: Cytotoxicity against human SW620 cells assessed as cell growth at 0.1 uM after 1 to 11 days by MTT assay; settings: read-out: Activity
HOP-62 = assay: Cytotoxicity against human HOP62 cells assessed as cell growth at 10 uM after 1 to 11 days by MTT assay; settings: read-out: Activity
SF-268 [18] = assay: Cytotoxicity against human SF268 cells assessed as cell growth at 100 uM after 1 to 11 days by MTT assay; settings: read-out: Activity
SF-539 [19] = assay: Cytotoxicity against human SF539 cells after 1 to 11 days by MTT assay
CCRF-CEM = assay: Cytotoxicity against human CCRF-CEM cells assessed as cell growth at 10 uM after 1 to 11 days by MTT assay; settings: read-out: Activity
NCI-H522 [20] = assay: Cytotoxicity against human NCI-H522 cells assessed as cell growth at 1 uM after 1 to 11 days by MTT assay; settings: read-out: Activity
T47D = assay: Cytotoxicity against human T47D cells assessed as cell growth at 1 uM after 1 to 11 days by MTT assay; settings: read-out: Activity
SNB-19 [21] = assay: Cytotoxicity against human SNB19 cells assessed as cell growth at 100 uM after 1 to 11 days by MTT assay; settings: read-out: Activity
UO-31 = assay: Cytotoxicity against human UO31 cells assessed as cell growth at 1 mM after 1 to 11 days by MTT assay; settings: read-out: Activity
TK-10 = assay: Cytotoxicity against human TK10 cells assessed as cell growth at 10 uM after 1 to 11 days by MTT assay; settings: read-out: Activity
LOX IMVI [22] = assay: Cytotoxicity against human LOXIMVI cells assessed as cell growth at 1 mM after 1 to 11 days by MTT assay; settings: read-out: Activity
A549 [23] = assay: Cytotoxicity against human A549 cells assessed as cell growth at 0.1 uM after 1 to 11 days by MTT assay; settings: read-out: Activity
[24] = read-out: LC50 (the source's name)

With `O=C1Nc2ncccc2/C1=C1/Nc2ccccc2/C1=N\O` the GI50 (A549 [1]) was 3.5 µM, the TGI (A549 [1]) was greater than 100 µM and the CC50 (A549 [1]; [24]) was greater than 100 µM. The GI50 (SN12C) was 4.98 µM, the TGI (SN12C) was greater than 100 µM and the CC50 (SN12C; [24]) was greater than 100 µM. The growth at 1 µM (HL-60(TB)) was 99%, the growth at 1000 µM (MDA-MB-231) was 2% and the growth at 1 µM (COLO 205) was 87%. For the same compound, the GI50 (SK-MEL-5) was 9.53 µM, the TGI (SK-MEL-5) was greater than 100 µM and the CC50 (SK-MEL-5; [24]) was greater than 100 µM. The growth at 0.1 µM (LOX IMVI [2]) was 98%, the growth at 100 µM (NCI-H322M [3]) was 8% and the growth at 0.1 µM (BT-549) was 89%. For the same compound, the growth at 0.1 µM (A498) was 76%, the growth at 1000 µM (SK-MEL-28 [4]) was 47% and the growth at 10 µM (NCI-H522 [5]) was 99%. For the same compound, the growth at 1 µM (MDA-MB-468) was 75%, the TGI (HCT-116 [6]) was greater than 100 µM and the CC50 (HCT-116 [6]; [24]) was greater than 100 µM. For the same compound, the growth at 1000 µM (HCT-116 [7]) was 50%, the growth at 0.1 µM (PC-3) was 96% and the growth at 10 µM (MOLT-4 [8]) was 70%. It also gave a growth at 10 µM (SK-MEL-28 [9]) of 87%, a growth at 10 µM (A549 [10]) of 91% and a growth at 1000 µM (SF-268 [11]) of 54%. The growth at 100 µM (SK-OV-3) was -6%, the growth at 0.1 µM (OVCAR-4) was 94% and the growth at 0.1 µM (NCI-H522 [12]) was 100%. The growth at 1000 µM (ACHN) was 17%, the growth at 1 µM (MOLT-4 [13]) was 77% and the growth at 0.1 µM (SF-539 [14]) was 89%. The growth at 1 µM (SNB-19 [15]) was 97%, the growth at 1 µM (OVCAR-8) was 85% and the growth at 0.1 µM (MOLT-4 [16]) was 92%. For the same compound, the growth at 10 µM (MCF7) was 86%, the growth at 1 µM (NCI-H322M [17]) was 82% and the growth at 10 µM (IGROV-1) was 60%. It also gave a growth at 0.1 µM (SW-620) of 99%, a growth at 10 µM (HOP-62) of 105% and a growth at 100 µM (SF-268 [18]) of 54%. For the same compound, the GI50 (SF-539 [19]) was greater than 100 µM, the TGI (SF-539 [19]) was greater than 100 µM and the CC50 (SF-539 [19]; [24]) was greater than 100 µM. For the same compound, the growth at 10 µM (CCRF-CEM) was 82%, the growth at 1 µM (NCI-H522 [20]) was 99% and the growth at 1 µM (T47D) was 86%. For the same compound, the growth at 100 µM (SNB-19 [21]) was 78%, the growth at 1000 µM (UO-31) was 11% and the growth at 10 µM (TK-10) was 91%. For the same compound, the growth at 1000 µM (LOX IMVI [22]) was 30% and the growth at 0.1 µM (A549 [23]) was 102%.
